Data on 32 molecules can be found in ChEMBL document CHEMBL2346513, “Synthesis and evaluation of methylsulfonylnitrobenzamides (MSNBAs) as inhibitors of the thyroid hormone receptor-coactivator interaction” (Bioorg Med Chem Lett, 2013).

Assay [1] has as its target T1, Thyroid hormone receptor beta (Homo sapiens, UniProt P10828).
T1 sequence (P10828 whole entry): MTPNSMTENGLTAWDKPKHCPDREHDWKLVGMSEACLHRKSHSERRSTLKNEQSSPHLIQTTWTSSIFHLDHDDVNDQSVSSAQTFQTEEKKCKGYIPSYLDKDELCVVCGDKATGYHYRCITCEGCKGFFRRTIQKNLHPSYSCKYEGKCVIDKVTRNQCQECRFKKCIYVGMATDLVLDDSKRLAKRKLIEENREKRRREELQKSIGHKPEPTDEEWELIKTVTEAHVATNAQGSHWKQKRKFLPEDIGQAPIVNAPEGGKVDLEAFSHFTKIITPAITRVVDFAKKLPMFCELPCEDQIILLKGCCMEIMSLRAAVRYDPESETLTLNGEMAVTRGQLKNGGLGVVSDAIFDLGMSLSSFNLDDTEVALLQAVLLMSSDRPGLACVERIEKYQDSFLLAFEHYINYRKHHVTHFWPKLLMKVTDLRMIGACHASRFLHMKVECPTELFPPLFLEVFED
In words: Inhibition of TRbeta-LBD (unknown origin) interaction to texas red-labeled SRC2-2 peptide by fluorescence polarization assay.

Assay [2] deals with T2, Vitamin D3 receptor (Homo sapiens, UniProt P11473).
T2 sequence (P11473 whole entry): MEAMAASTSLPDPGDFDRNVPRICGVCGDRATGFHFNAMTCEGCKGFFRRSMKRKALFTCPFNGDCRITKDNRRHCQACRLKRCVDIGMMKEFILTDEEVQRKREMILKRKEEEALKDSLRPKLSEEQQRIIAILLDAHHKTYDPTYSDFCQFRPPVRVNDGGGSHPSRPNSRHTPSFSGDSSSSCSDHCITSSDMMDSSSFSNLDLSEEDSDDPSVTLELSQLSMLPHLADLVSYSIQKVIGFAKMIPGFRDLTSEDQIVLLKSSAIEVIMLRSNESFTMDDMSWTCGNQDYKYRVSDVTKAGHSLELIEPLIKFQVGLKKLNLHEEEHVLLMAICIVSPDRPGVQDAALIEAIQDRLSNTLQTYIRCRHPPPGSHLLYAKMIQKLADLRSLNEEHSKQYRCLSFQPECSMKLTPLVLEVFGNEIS
Put plainly: Inhibition of VDR (unknown origin) interaction to SRC2-3 peptide by fluorescence polarization assay.

Assay [3] concerns the target T3, Thyroid hormone receptor alpha (Homo sapiens, UniProt P10827).
T3 sequence (P10827 whole entry): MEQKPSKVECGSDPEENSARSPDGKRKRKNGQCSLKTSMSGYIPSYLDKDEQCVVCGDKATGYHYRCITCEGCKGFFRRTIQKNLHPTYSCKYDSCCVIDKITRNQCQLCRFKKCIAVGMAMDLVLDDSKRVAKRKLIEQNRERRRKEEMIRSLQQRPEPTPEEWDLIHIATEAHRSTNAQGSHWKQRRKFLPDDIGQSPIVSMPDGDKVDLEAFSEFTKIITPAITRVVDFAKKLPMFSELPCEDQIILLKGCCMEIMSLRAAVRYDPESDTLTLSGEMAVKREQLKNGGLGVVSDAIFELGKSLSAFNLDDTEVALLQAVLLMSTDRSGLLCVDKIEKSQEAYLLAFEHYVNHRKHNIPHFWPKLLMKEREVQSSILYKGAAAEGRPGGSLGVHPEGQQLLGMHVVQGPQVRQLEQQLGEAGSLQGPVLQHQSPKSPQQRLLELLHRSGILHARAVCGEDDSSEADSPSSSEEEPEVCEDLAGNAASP
Put plainly: Inhibition of TRalpha-LBD (unknown origin) interaction to texas red-labeled SRC2-2 peptide by fluorescence polarization assay.

The test system of assay [4] is HepG2. In words: Cytotoxicity against human HepG2 cells assessed as ATP level after 72 hrs by CellTiter-Glo assay. In kind it is cell-based. As to conditions: HepG2, 72 h.

Molecules are shown by their SMILES.

In the case of `CN(CC(=O)N1CCC(c2ccccc2)CC1)C(=O)c1ccc(S(C)(=O)=O)c([N+](=O)[O-])c1`, the IC50 in assay [1], in assay [2] and in assay [3] was over 60 µM in each case. The EC50 in assay [4] was over 27 µM.

With `CN(C(=O)CCNC(=O)c1ccc(S(C)(=O)=O)c([N+](=O)[O-])c1)c1ccccc1`, the values for the 50% inhibitory concentration (IC50) in assay [1], in assay [2] and in assay [3] were over 60 µM, over 60 µM and 37 µM, respectively. Besides, the half-maximal effective concentration (EC50) in assay [4] was over 27 µM.

Turning to `CN(CC(=O)N1Cc2ccccc2C1)C(=O)c1ccc(S(C)(=O)=O)c([N+](=O)[O-])c1`, the IC50 in assay [1], in assay [2] and in assay [3] was over 60 µM each time. In assay [4], the EC50 is over 27 µM.

Regarding `CS(=O)(=O)c1ccc(C(=O)NCCCC(=O)N2CCN(c3ccccc3F)CC2)cc1[N+](=O)[O-]`, the half-inhibitory concentration (IC50) in assay [1], in assay [2] and in assay [3] was over 60 µM in each case. For the same molecule, the EC50 in assay [4] is over 27 µM.

On to `CN(Cc1ccccc1)C(=O)CCNC(=O)c1ccc(S(C)(=O)=O)c([N+](=O)[O-])c1`, for which the IC50 in assay [1], in assay [2] and in assay [3] was over 60 µM throughout. The half-maximal effective concentration (EC50) in assay [4] was over 27 µM.

As for `CS(=O)(=O)c1ccc(C(=O)NCCCC(=O)N2CCc3ccccc32)cc1[N+](=O)[O-]`, the IC50 in assay [1], in assay [2] and in assay [3] was over 60 µM each time. Moreover, the EC50 in assay [4] was over 27 µM.

Take `CN(Cc1ccccc1)C(=O)CNC(=O)c1ccc(S(C)(=O)=O)c([N+](=O)[O-])c1`: the IC50 in assay [1] was 39 µM; in assay [2], over 60 µM; in assay [3], over 60 µM. Also, the half-maximal effective concentration (EC50) in assay [4] is over 27 µM.

Take `CN(Cc1ccccc1F)C(=O)CN(C)C(=O)c1ccc(S(C)(=O)=O)c([N+](=O)[O-])c1`: the IC50 in assay [1], in assay [2] and in assay [3] was over 60 µM throughout. Besides, in assay [4], the EC50 is over 27 µM.

As to `CN(CC(=O)N1CCN(c2ccc(F)cc2)CC1)C(=O)c1ccc(S(C)(=O)=O)c([N+](=O)[O-])c1`, the half-inhibitory concentration (IC50) in assay [1], in assay [2] and in assay [3] was over 60 µM in each case. The EC50 in assay [4] turned out to be 17.2 µM.

Consider `CCCN(C(=O)CN(C)C(=O)c1ccc(S(C)(=O)=O)c([N+](=O)[O-])c1)c1ccccc1`, for which the IC50 in assay [1], in assay [2] and in assay [3] was over 60 µM throughout. Moreover, in assay [4], the EC50 is over 27 µM.

`CS(=O)(=O)c1ccc(C(=O)N2CCC(C(=O)N3CCN(c4ccccc4)CC3)CC2)cc1[N+](=O)[O-]`: the IC50 in assay [1], in assay [2] and in assay [3] was over 60 µM each time. Moreover, the EC50 in assay [4] was over 27 µM.

Consider `CCCN(C(=O)CNC(=O)c1ccc(S(C)(=O)=O)c([N+](=O)[O-])c1)c1ccccc1`, for which the values for the IC50 in assay [1], in assay [2] and in assay [3] were 6.6 µM, over 60 µM and 1.9 µM, respectively. Moreover, the EC50 in assay [4] was over 27 µM.

On to `CC(C)N(C(=O)CCNC(=O)c1ccc(S(C)(=O)=O)c([N+](=O)[O-])c1)C(C)C`, for which the 50% inhibitory concentration (IC50) in assay [1], in assay [2] and in assay [3] was over 60 µM each time. Moreover, the concentration for a half-maximal effect (EC50) in assay [4] was over 27 µM.

`CS(=O)(=O)c1ccc(C(=O)NCCC(=O)N2CCC(c3ccccc3)CC2)cc1[N+](=O)[O-]`: the IC50 in assay [1], in assay [2] and in assay [3] was over 60 µM each time. In addition, in assay [4], the half-maximal effective concentration (EC50) is over 27 µM.

Take `CS(=O)(=O)c1ccc(C(=O)NCC(=O)N2CCCCC2)cc1[N+](=O)[O-]`: the IC50 in assay [1] is over 60 µM; in assay [2], over 60 µM; in assay [3], 44 µM. In addition, the half-maximal effective concentration (EC50) in assay [4] was 14 µM.

As for `CN(CC(=O)N1CCc2ccccc2C1)C(=O)c1ccc(S(C)(=O)=O)c([N+](=O)[O-])c1`, the half-maximal inhibitory concentration (IC50) in assay [1], in assay [2] and in assay [3] was over 60 µM each time. Besides, the EC50 in assay [4] was over 27 µM.

Turning to `CN(C(=O)CCCNC(=O)c1ccc(S(C)(=O)=O)c([N+](=O)[O-])c1)c1ccccc1`, the IC50 in assay [1], in assay [2] and in assay [3] was over 60 µM throughout. Besides, the 50% effective concentration (EC50) in assay [4] is over 27 µM.

On to `CC1Cc2ccccc2N1C(=O)CCNC(=O)c1ccc(S(C)(=O)=O)c([N+](=O)[O-])c1` (stereo not drawn), for which the IC50 in assay [1] is over 60 µM; in assay [2], 55 µM; in assay [3], over 60 µM. The EC50 in assay [4] was over 27 µM.

On to `CC1CCN(C(=O)CCCNC(=O)c2ccc(S(C)(=O)=O)c([N+](=O)[O-])c2)CC1`, for which the IC50 in assay [1], in assay [2] and in assay [3] was over 60 µM throughout. The concentration giving a half-maximal response (EC50) in assay [4] is over 27 µM.

Turning to `CS(=O)(=O)c1ccc(C(=O)NCCC(=O)N2CCCCC2)cc1[N+](=O)[O-]`, the IC50 in assay [1], in assay [2] and in assay [3] was over 60 µM each time. For the same molecule, in assay [4], the EC50 is over 27 µM.

Consider `CN(CC(=O)N1CCN(c2ccccc2F)CC1)C(=O)c1ccc(S(C)(=O)=O)c([N+](=O)[O-])c1`, for which the IC50 in assay [1], in assay [2] and in assay [3] was over 60 µM each time. For the same molecule, in assay [4], the EC50 was 10.3 µM.

On to `CS(=O)(=O)c1ccc(C(=O)N2CCC(C(=O)N3CCc4ccccc4C3)CC2)cc1[N+](=O)[O-]`, for which the IC50 in assay [1], in assay [2] and in assay [3] was over 60 µM throughout. For the same molecule, the EC50 in assay [4] was over 27 µM.

For `CS(=O)(=O)c1ccc(C(=O)NCCC(=O)N2CCN(c3ccc(F)cc3)CC2)cc1[N+](=O)[O-]`, the IC50 in assay [1], in assay [2] and in assay [3] was over 60 µM in each case. Moreover, the concentration for a half-maximal effect (EC50) in assay [4] is over 27 µM.

Regarding `CC(C)N(C(=O)CNC(=O)c1ccc(S(C)(=O)=O)c([N+](=O)[O-])c1)C(C)C`, the 50% inhibitory concentration (IC50) in assay [1], in assay [2] and in assay [3] was over 60 µM in each case. Moreover, the half-maximal effective concentration (EC50) in assay [4] was over 27 µM.

Turning to `CN(C(=O)CNC(=O)c1ccc(S(C)(=O)=O)c([N+](=O)[O-])c1)c1ccccc1`, the IC50 in assay [1] is 5.8 µM; in assay [2], over 60 µM; in assay [3] it was 4.2 µM. The EC50 in assay [4] is over 27 µM.

On to `CS(=O)(=O)c1ccc(C(=O)NCCCC(=O)N2CCC(c3ccccc3)CC2)cc1[N+](=O)[O-]`, for which the concentration for half-maximal inhibition (IC50) in assay [1], in assay [2] and in assay [3] was over 60 µM in each case. Further, the concentration for a half-maximal effect (EC50) in assay [4] is over 27 µM.

`CS(=O)(=O)c1ccc(C(=O)NCC(=O)N2CCC(c3ccccc3)CC2)cc1[N+](=O)[O-]`: the values for the IC50 in assay [1], in assay [2] and in assay [3] were over 60 µM, 37 µM and 44 µM, respectively. Besides, the EC50 in assay [4] is over 27 µM.

For `CC(C)N(C(=O)C1CCN(C(=O)c2ccc(S(C)(=O)=O)c([N+](=O)[O-])c2)CC1)C(C)C`, the IC50 in assay [1], in assay [2] and in assay [3] was over 60 µM in each case. The half-maximal effective concentration (EC50) in assay [4] was over 27 µM.

Take `CS(=O)(=O)c1ccc(C(=O)NCC(=O)N(Cc2ccccc2)c2ccccc2)cc1[N+](=O)[O-]`: the results for the IC50 in assay [1], in assay [2] and in assay [3] were 20 µM, over 60 µM and over 60 µM, respectively. The EC50 in assay [4] is over 27 µM.

With `CN(Cc1ccccc1)C(=O)CCCNC(=O)c1ccc(S(C)(=O)=O)c([N+](=O)[O-])c1`, the IC50 in assay [1], in assay [2] and in assay [3] was over 60 µM in each case. Also, the EC50 in assay [4] is over 27 µM.

As to `CN(Cc1cccc(F)c1)C(=O)CN(C)C(=O)c1ccc(S(C)(=O)=O)c([N+](=O)[O-])c1`, the 50% inhibitory concentration (IC50) in assay [1], in assay [2] and in assay [3] was over 60 µM throughout. Further, in assay [4], the EC50 was over 27 µM.

On to `CS(=O)(=O)c1ccc(C(=O)NCCC(=O)N(Cc2ccccc2)Cc2ccccc2)cc1[N+](=O)[O-]`, for which the half-inhibitory concentration (IC50) was over 60 µM in assay [1], 38 µM in assay [2] and 33 µM in assay [3]. Moreover, in assay [4], the EC50 is over 27 µM.
